Calls of active or inactive are those of the source. The calls are words filed in the database; no cut-off is given here.
Tests used:
[1] = Chronic toxicity in […] mouse assessed as change in body weight at 100 mg/kg, po administered as single dose via gavage measured for 30 days; type: organism-based; settings: in vivo, 720 h, time 30 day
T47D = assay: Stabilization of RECQL5-RAD51 complex in RECQL5 knock out human T47D cells expressing wild type RECQL5-FLAG assessed as increase in RAD51-RECQL5-FLAG pull down at 20 uM measured after 8 hrs by coimmunoprecipitation assay; type: cell-based

With `O=C(Nc1cc(C(F)(F)F)cc(C(F)(F)F)c1)N[C@@H](c1ccccc1)c1nnc(SCc2ccccc2)o1` the Activity [1] was “Non-Toxic” and the Activity (T47D) was “Active”.
